Columns and labels:
P2X2 A304W = target: T1, P2X2 A304W (Homo sapiens, UniProt Q9UBL9, A304W); test: Fast GCaMP-mScarletI assay in yeast, P2X2 A304W; type: cell-based; details: site-saturation screen, 500 μM ATP, ± sd
T1 construct: expressed in transfected cells; host or cells: S. cerevisiae BY4741 background
T1 sequence (Q9UBL9 1-471 A304W): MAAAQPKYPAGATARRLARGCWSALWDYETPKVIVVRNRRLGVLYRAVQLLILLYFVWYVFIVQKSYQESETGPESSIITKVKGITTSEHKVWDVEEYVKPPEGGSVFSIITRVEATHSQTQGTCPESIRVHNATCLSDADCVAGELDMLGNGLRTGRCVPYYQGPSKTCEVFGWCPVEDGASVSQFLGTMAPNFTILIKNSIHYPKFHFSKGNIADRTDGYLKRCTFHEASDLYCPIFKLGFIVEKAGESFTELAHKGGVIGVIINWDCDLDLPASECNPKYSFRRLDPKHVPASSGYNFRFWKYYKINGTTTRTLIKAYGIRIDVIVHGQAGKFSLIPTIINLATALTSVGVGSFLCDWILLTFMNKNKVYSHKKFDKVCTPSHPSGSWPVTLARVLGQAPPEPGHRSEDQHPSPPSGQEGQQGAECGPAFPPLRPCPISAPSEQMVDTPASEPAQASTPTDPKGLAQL

P2X2 Y299F = target: T2, P2X2 Y299F (Homo sapiens, UniProt Q9UBL9, Y299F); test: Site-saturation screen of ligand-binding domain with ATP, Y299F; type: cell-based; details: 500 μM ATP, ± sd
T2 construct: expressed in transfected cells; host or cells: S. cerevisiae BY4741 background
From the text: (§1) The yeast P2X2 screening platform poses an opportunity to probe the structure-function of the ligand-binding domain in detail. The conserved P2X “NFR” motif at residues 300 to 302 is directly involved in bonding to the ATP triphosphate moiety ([41]), so we mutagenized residues at or near this motif (298–304), ultimately covering 133 variants (7 sites, 19 residues each). […] We compared our results to phylogenetic data based on a multiple sequence alignment (MSA) from a curated set of 419 related P2X homologs (Figs. 3B, and S5; Table S1).
(§2) Figure 3 Structure-function analysis of the ligand binding domain.A, heat map summarizing the screening data of ATP with seven site-saturation libraries surrounding the NFR-motif. B, sequence-logo plot of the mutagenized residues and percent identity scores as determined from MSA. C, homology model of P2X2 colored by sequence conservation as calculated from a multiple sequence alignment of 419 related P2X genes. Conservation is scored on a log scale where maroon is more conserved and blue is less conserved. D, ATP in the ligand-binding pocket of P2X2. […]
(§3) GCaMP assays were performed as follows. […] Cells were loaded onto a black, clear bottom microplate and imaged on a FlexStation3 plate reader. […] Fluorescence was measured with an excitation at 485 nm, and emission 525 nm. […] For strains with mScarlet, fluorescence was read with excitation 570 nm/emission 610 nm. […]

P2X2 F303M = target: T3, P2X2 F303M (Homo sapiens, UniProt Q9UBL9, F303M); test: Site-saturation screen of ligand-binding domain with ATP, F303M; type: cell-based; details: 500 μM ATP, ± sd
T3 construct: expressed in transfected cells; host or cells: Saccharomyces cerevisiae BY4741 derivative, genome-integrated, galactose-inducible
From the text: as §1, §2, §3

P2X2 R302 lysine (R302K) = target: T4, P2X2 R302 lysine (R302K) (Homo sapiens, UniProt Q9UBL9, R302K); test: Site-saturation screen of ligand-binding domain with ATP, R302 lysine; type: cell-based; details: 500 μM ATP, ± sd
T4 construct: expressed in transfected cells; host or cells: S. cerevisiae BY4741 background
From the text: as §1, §2, §3

P2X2 G298 substitutions = test: Site-saturation screen of ligand-binding domain with ATP, G298 substitutions; type: cell-based, human; details: 500 μM ATP
From the text: as §1, §2, §3

P2X2 N300T = target: T5, P2X2 N300T (Homo sapiens, UniProt Q9UBL9, N300T); test: Site-saturation screen of ligand-binding domain with ATP, N300T; type: cell-based; details: 500 μM ATP, ± sd
T5 construct: expressed in transfected cells; host or cells: S. cerevisiae BY4741 background
From the text: as §1, §2, §3

[1] = tested on: P2X2 all variants at V60, including the V60L mutation; test: Site-saturation screen, fast kinetic assay in yeast, V60 variants; type: cell-based, human; details: 500 μM ATP f.c., ΔF/ΔT normalized to WT
Experimental: Figure 2 P2X2 SNP testing.A, homology model of P2X2 with the clinically implicated SNPs highlighted. V60 is highlighted in magenta and G353 is highlighted in dark blue. Lines indicate the positions of the mutations on each of the three monomers. B, zoomed view of the transmembrane region from the purple box in (A). V60 is magenta and G353 is dark blue. The structure is rotated 60° on the right image. C, screening data from site-saturation of the V60 residue in saturating ATP concentration (500 μM f.c.) using the fast kinetic assay. Signal onset values (ΔF/ΔT) are normalized to values from the WT receptor. […] Each of 2 to 3 replicates is represented as a single point. […]
GCaMP assays were performed as follows. […] Cells were loaded onto a black, clear bottom microplate and imaged on a FlexStation3 plate reader. […] Fluorescence was measured with an excitation at 485 nm, and emission 525 nm. […] For strains with mScarlet, fluorescence was read with excitation 570 nm/emission 610 nm. Slopes were calculated from the last 6 points of measurement and were normalized to the positive control samples. Any replicate in which the mScarlet value was measured to be over 2 standard deviations less than the mean for that set was discarded from further analysis.

P2X2 Y299H = target: T6, P2X2 Y299H (Homo sapiens, UniProt Q9UBL9, Y299H); test: Site-saturation screen of ligand-binding domain with ATP, Y299H; type: cell-based; details: 500 μM ATP, ± sd
T6 construct: expressed in transfected cells; host or cells: S. cerevisiae BY4741 background
From the text: as §1, §2, §3

P2X2 A304Y = target: T7, P2X2 A304Y (Homo sapiens, UniProt Q9UBL9, A304Y); test: Site-saturation screen of ligand-binding domain with ATP, A304Y; type: cell-based; details: 500 μM ATP, ± sd
T7 construct: expressed in transfected cells; host or cells: Saccharomyces cerevisiae BY4741 derivative, genome-integrated, galactose-inducible
From the text: as §1, §2, §3

P2X2 A304V = target: T8, P2X2 A304V (Homo sapiens, UniProt Q9UBL9, A304V); test: Site-saturation screen of ligand-binding domain with ATP, A304V; type: cell-based; details: 500 μM ATP, ± sd
T8 construct: expressed in transfected cells; host or cells: Saccharomyces cerevisiae BY4741 derivative, genome-integrated, galactose-inducible
From the text: as §1, §2, §3

T2 sequence (Q9UBL9 whole entry Y299F, the tested form may be a part): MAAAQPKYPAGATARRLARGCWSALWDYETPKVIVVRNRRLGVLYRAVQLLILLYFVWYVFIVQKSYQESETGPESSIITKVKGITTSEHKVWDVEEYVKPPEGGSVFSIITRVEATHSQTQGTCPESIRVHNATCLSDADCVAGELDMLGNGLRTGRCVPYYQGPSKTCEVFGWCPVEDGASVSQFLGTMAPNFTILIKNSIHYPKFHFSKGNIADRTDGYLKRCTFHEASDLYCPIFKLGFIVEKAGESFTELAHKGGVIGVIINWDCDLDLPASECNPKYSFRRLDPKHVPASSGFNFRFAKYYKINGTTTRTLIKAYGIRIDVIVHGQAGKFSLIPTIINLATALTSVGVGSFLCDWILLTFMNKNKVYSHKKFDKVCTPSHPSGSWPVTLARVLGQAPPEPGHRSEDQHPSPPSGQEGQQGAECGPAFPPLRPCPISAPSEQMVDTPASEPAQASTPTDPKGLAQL
T4 sequence (Q9UBL9 whole entry R302K, the tested form may be a part): as the sequence (Q9UBL9 whole entry Y299F, the tested form may be a part) above, with F299Y, R302K counted along it
T8 sequence (Q9UBL9 whole entry A304V, the tested form may be a part): as the sequence (Q9UBL9 whole entry Y299F, the tested form may be a part) above, with F299Y, A304V counted along it
T5 sequence (Q9UBL9 whole entry N300T, the tested form may be a part): as the sequence (Q9UBL9 whole entry Y299F, the tested form may be a part) above, with F299Y, N300T counted along it
T6 sequence (Q9UBL9 whole entry Y299H, the tested form may be a part): as the sequence (Q9UBL9 whole entry Y299F, the tested form may be a part) above, with F299H counted along it
T7 sequence (Q9UBL9 whole entry A304Y, the tested form may be a part): as the sequence (Q9UBL9 whole entry Y299F, the tested form may be a part) above, with F299Y, A304Y counted along it
T3 sequence (Q9UBL9 whole entry F303M, the tested form may be a part): as the sequence (Q9UBL9 whole entry Y299F, the tested form may be a part) above, with F299Y, F303M counted along it

Question: `Nc1ncnc2c1ncn2[C@@H]1O[C@H](COP(=O)(O)OP(=O)(O)OP(=O)(O)O)[C@@H](O)[C@H]1O` [ATP] was tested. Which “signal, % of WT signaling” value (P2X2 A304W) did it give?
Answer: 125 ± 47%

Question: And the “signal relative to WT” value (P2X2 Y299F)?
Answer: 21 ± 12%

Question: What about the “signal, % of WT signaling” value (P2X2 F303M) of the same compound?
Answer: 71 ± 14%

Question: And the “signal, % of WT signaling” value (P2X2 R302 lysine (R302K))?
Answer: 43 ± 15%

Question: And the “ligand gating activity compared to the negative control” value (P2X2 G298 substitutions)?
Answer: none of the G298 substitutions exhibiting ligand gating activity

Question: And the “signal, % of WT signaling” value (P2X2 N300T)?
Answer: 51 ± 10%

Question: What about the “response to ATP” value [1] of the same compound?
Answer: unresponsive

Question: What about the “signal relative to WT” value (P2X2 Y299H) of the same compound?
Answer: 11 ± 5%

Question: And the “signal, % of WT signaling” value (P2X2 A304Y)?
Answer: 52 ± 10%

Question: And the “signal, % of WT signaling” value (P2X2 A304V)?
Answer: 32 ± 2.1%

Source: paper PMC11063903, “Engineering a human P2X2 receptor with altered ligand selectivity in yeast” (The Journal of Biological Chemistry, 2024)
